Results from patent US20240139185A1, “COMPOUNDS THAT PARTICIPATE IN COOPERATIVE BINDING AND USES THEREOF” (Revolution Medicines, Inc., priority 2018, published 2024).

Legend:
cyclophilin A (CYPA) = cyclophilin A (CYPA) (Homo sapiens, UniProt P62937); assay: CYPA-compound binary complex formation by SPR; details: read-out: CYPA Binding Affinity
Procedure, shortened: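 CypA-Avi captured on a Biotin CAPture chip (4 μg/ml), reference flow cell subtracted. Compounds injected as 10-point 2-fold dilutions from 50 μM in HBS-P+ pH7.4 with 2% DMSO; 60 s association and 60 s dissociation, solvent-corrected. Affinity obtained by steady-state fitting.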

[1] = molecular target: T1, BRAF-GTP-KRAS-G12C complex (Homo sapiens, UniProt P01116+P62937, G12C); assay: KRAS-BRAF complex disruption through competition with CYPA-compound by TR-FRET; details: biochemical BRAF-KRAS G12C-GTP disruption assay EC50, with CYPA
T1 construct: 50 nM of His6-KRas G12C-GTP (1-169); 500 nM of tagless CypA (1-165)
Procedure, shortened: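 His6-KRAS G12C-GTP (1-169, 50 nM) with tagless CypA (1-165, 500 nM) was incubated with compound for 3 h at room temperature in pH 7.3 Hepes/NaCl/MgCl2 buffer containing GST-BRAF RBD. Anti-His Eu (10 nM) and anti-GST APC (50 nM) were then added for 1.5 h, and the 665/615 nm TR-FRET ratio was read. EC50 from 4-parameter fit; for specificity, wild-type KRAS replaced G12C, and CypA was omitted to test presenter dependence.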

BRAF-GTP-KRASWT complex = molecular target: T2, BRAF-GTP-KRASWT complex (Homo sapiens, UniProt P01116+P62937); assay: KRAS-BRAF complex disruption TR-FRET with wild-type KRAS (G12C specificity); type: biochemical; details: with CYPA
T2 construct: substitute His6-KRas WT-GTP (1-169) for His6-KRas G12C-GTP (1-169); 500 nM of tagless CypA (1-165)
Protocol: In this example, TR-FRET was used to measure the compound-facilitated disruption of a KRAS-BRAF complex. A mixture of tagless Cyclophilin A, His6-KRAS G12C-GMP-PNP, and GST-BRAF RAS binding domain was added to a 384-well assay plate containing compounds of the invention and incubated for 3 hours. A mixture of Anti-His Eu-W1024 and anti-GST allophycocyanin was then added and the reaction was incubated for an additional 1.5 hours. TR-FRET signal was read on an EnVision microplate reader (Perkin Elmer, Ex 320 nm, Em 665/615 nm). Compounds that facilitate disruption of a KRAS_BRAF complex were identified as those eliciting a decrease in the TR-FRET ratio relative to DMSO control wells. To determine the presenter-dependence of the compound-mediated KRAS-BRAF complex disruption, Cyclophilin A was left out of the initial incubation (see Table 5). To determine G12C specificity of the compound-mediated KRAS-BRAF complex disruption, wild-type KRAS was used instead of G12C KRAS (see Table 5).
Reagents and Instrument • Tagless CYPA; 519 μM in PBS buffer, pH 7.4 • GST BRAF; 110 μM in PBS buffer, pH 7.4 • His6-KRASG12C-GMP-PNP; 50 μM in PBS buffer, pH 7.4 • His6-KRASWT-GMP-PNP; 40 μM in PBS buffer, pH 7.4 • Anti-His Eu-W1024 (LANCE® Eu-W1024; Perkin Elmer) • Anti-GST allophycocyanin (Anti-GST IgG conjugated to SureLight®-Allophycocyanin; Perkin Elmer; Product Number AD0059G) • Test compounds, 10 mM in 100% DMSO • EnVision (Perkin Elmer) • Combi MultiDrop liquid dispenser with 8-channel small volume cassette • 384-well ProxiPlate (black)
Experimental Protocol • 1. Use Mosquito to dispense 100 nL/well of compounds (varying concentration in […]) into 384-well black ProxiPlate to make assay-ready-plate (ARP). • 2. Make assay buffer containing 25 mM Hepes pH 7.3, 100 mM NaCl, 5 mM MgCl2, 0.05% BSA, and 0.002% Tween-20. • 3. Make PRE-MIX A: delivers final concentrations of 50 nM of His6-KRas G12C-GTP (1-169) and 500 nM of tagless CypA (1-165) in assay buffer. • a. […] Read on EnVision (Ex: 320 nm; Em1: 615 nm; Em2: 665 nm). • 8. […]

| Structure (SMILES) | Kd (cyclophilin A (CYPA)) | EC50 [1] | IC50 (BRAF-GTP-KRASWT complex) |
| --- | --- | --- | --- |
| CC1COC(=O)C2CCCN(N2)C(=O)C(NC(=O)C(C(C)C)N(C)C(=O)C2CN(C(=O)CCl)C2)Cc2cc(O)cc(c2)-c2ccc3c(c2)c(cn3CC2COC2)C1 (mixture of isomers) [Compound 226] | ≤ 5 µM | ≤ 0.5 µM | > 30 µM |
| CC1COC(=O)C2CCCN(N2)C(=O)C(NC(=O)C(C(C)C)N(C)C(=O)C2CN(C(=O)CCl)C2)Cc2cc(O)cc(c2)-c2ccc3c(S(C)(=O)=O)cn(c3c2)C1 (single isomer, unassigned) [Compound 110] | ≤ 5 µM | ≤ 0.5 µM | > 30 µM |
